Measured values from ChEMBL document CHEMBL1201862, “PubChem BioAssay data set” (2004).
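Briefly, cells in 96-well plates were exposed to five compound concentrations for 48 h, and endpoints were estimated by linear interpolation. The concentration for 50% growth inhibition is given as GI50.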 Active and inactive are the calls of the source. Cut-off read from the data, not from the text of the source: active = GI50 up to about 1.1 µM and inactive = higher.

How the values were obtained:
Experiment in all cases: NCI-60 cell line screen, 48 h
OVCAR-4 = tested on: OVCAR-4
K562 = tested on: K562
UO-31 = tested on: UO-31
MCF7 = tested on: MCF7
SW-620 = tested on: SW-620
MDA-MB-231 = tested on: MDA-MB-231
T47D = tested on: T47D
MDA-MB-435 = tested on: MDA-MB-435
OVCAR-5 = tested on: OVCAR-5
HCT-15 = tested on: HCT-15
RPMI-8226 = tested on: RPMI-8226
HCT-116 = tested on: HCT-116
SF-268 = tested on: SF-268
HL-60 = tested on: HL-60
SR = tested on: SR
ACHN = tested on: ACHN
HOP-92 = tested on: HOP-92
A549 = tested on: A549
SNB-19 = tested on: SNB-19
SNB-75 = tested on: SNB-75
KM12 = tested on: KM12
HOP-62 = tested on: HOP-62
NCI-H522 = tested on: NCI-H522
EKVX = tested on: EKVX
HT-29 = tested on: HT-29
M14 = tested on: M14
SK-OV-3 = tested on: SK-OV-3
SF-295 = tested on: SF-295
COLO 205 = tested on: COLO 205
TK-10 = tested on: TK-10
UACC-62 = tested on: UACC-62
DU-145 = tested on: DU-145
Hs-578T = tested on: Hs-578T
RXF 393 = tested on: RXF 393
MDA-N = tested on: MDA-N
CCRF-CEM = tested on: CCRF-CEM
IGROV-1 = tested on: IGROV-1
SN12C = tested on: SN12C
SK-MEL-28 = tested on: SK-MEL-28
PC-3 = tested on: PC-3
SK-MEL-5 = tested on: SK-MEL-5
OVCAR-8 = tested on: OVCAR-8
Malme-3M = tested on: Malme-3M
NCI-H23 = tested on: NCI-H23
U-251 = tested on: U-251
CAKI-1 = tested on: CAKI-1
HCC 2998 = tested on: HCC 2998
MOLT-4 = tested on: MOLT-4
A498 = tested on: A498
NCI/ADR-RES = tested on: NCI/ADR-RES
786-0 = tested on: 786-0
NCI-H226 = tested on: NCI-H226
SF-539 = tested on: SF-539
NCI-H460 = tested on: NCI-H460
SK-MEL-2 = tested on: SK-MEL-2
UACC-257 = tested on: UACC-257
LOX IMVI = tested on: LOX IMVI
BT-549 = tested on: BT-549
OVCAR-3 = tested on: OVCAR-3

Cc1ccc(S(=O)(=O)NNC(=O)Nc2cccc(C(F)(F)F)c2)cc1
GI50 (OVCAR-4): 0.0653 µM (active)
GI50 (K562): 67.6 µM (inactive)
GI50 (UO-31): 99.1 µM (inactive)
GI50 (MCF7): 97.1 µM (inactive)
GI50 (SW-620): > 100 µM (inactive)
GI50 (MDA-MB-231): > 100 µM (inactive)
GI50 (T47D): > 100 µM (inactive)
GI50 (MDA-MB-435): > 100 µM (inactive)
GI50 (OVCAR-5): > 100 µM (inactive)
GI50 (HCT-15): 89.1 µM
GI50 (RPMI-8226): > 100 µM (inactive)
GI50 (HCT-116): 97.1 µM (inactive)
GI50 (SF-268): > 100 µM (inactive)
GI50 (HL-60): > 100 µM (inactive)
GI50 (SR): > 100 µM (inactive)
GI50 (ACHN): 58.5 µM (inactive)
GI50 (HOP-92): > 100 µM (inactive)
GI50 (A549): > 100 µM (inactive)
GI50 (SNB-19): > 100 µM (inactive)
GI50 (SNB-75): 0.0284 µM (active)
GI50 (KM12): 57.3 µM (inactive)
GI50 (HOP-62): > 100 µM (inactive)
GI50 (NCI-H522): 38.4 µM (inactive)
GI50 (EKVX): > 100 µM (inactive)
GI50 (HT-29): > 100 µM (inactive)
GI50 (M14): > 100 µM (inactive)
GI50 (SK-OV-3): > 100 µM (inactive)
GI50 (SF-295): > 100 µM (inactive)
GI50 (COLO 205): > 100 µM (inactive)
GI50 (TK-10): > 100 µM (inactive)
GI50 (UACC-62): > 100 µM (inactive)
GI50 (DU-145): > 100 µM (inactive)
GI50 (Hs-578T): > 100 µM (inactive)
GI50 (RXF 393): 85.7 µM (inactive)
GI50 (MDA-N): > 100 µM (inactive)
GI50 (CCRF-CEM): 96.2 µM (inactive)
GI50 (IGROV-1): > 100 µM (inactive)
GI50 (SN12C): > 100 µM (inactive)
GI50 (SK-MEL-28): > 100 µM (inactive)
GI50 (PC-3): 36.4 µM (inactive)
GI50 (SK-MEL-5): 33.3 µM (inactive)
GI50 (OVCAR-8): > 100 µM (inactive)
GI50 (Malme-3M): > 100 µM (inactive)
GI50 (NCI-H23): > 100 µM (inactive)
GI50 (U-251): 96.8 µM (inactive)
GI50 (CAKI-1): > 100 µM (inactive)
GI50 (HCC 2998): > 100 µM (inactive)
GI50 (MOLT-4): > 100 µM (inactive)
GI50 (A498): > 100 µM (inactive)
GI50 (NCI/ADR-RES): 61.8 µM (inactive)
GI50 (786-0): > 100 µM (inactive)
GI50 (NCI-H226): 44.7 µM (inactive)
GI50 (SF-539): > 100 µM (inactive)
GI50 (NCI-H460): > 100 µM (inactive)
GI50 (SK-MEL-2): > 100 µM (inactive)
GI50 (UACC-257): 57.9 µM (inactive)

O=C(CN(C(=O)OC12CC3CC(CC(C3)C1)C2)C(=O)OC12CC3CC(CC(C3)C1)C2)Oc1ccc([N+](=O)[O-])cc1
GI50 (OVCAR-4): > 100 µM (inactive)
GI50 (K562): 58.1 µM (inactive)
GI50 (UO-31): > 100 µM (inactive)
GI50 (MCF7): > 100 µM (inactive)
GI50 (SW-620): 56.6 µM (inactive)
GI50 (MDA-MB-231): 76.2 µM (inactive)
GI50 (MDA-MB-435): 45.3 µM (inactive)
GI50 (OVCAR-5): > 100 µM (inactive)
GI50 (HCT-15): > 100 µM
GI50 (HCT-116): > 100 µM (inactive)
GI50 (SF-268): > 100 µM (inactive)
GI50 (SR): > 100 µM (inactive)
GI50 (ACHN): > 100 µM (inactive)
GI50 (HOP-92): > 100 µM (inactive)
GI50 (A549): > 100 µM (inactive)
GI50 (SNB-19): > 100 µM (inactive)
GI50 (SNB-75): > 100 µM (inactive)
GI50 (KM12): > 100 µM (inactive)
GI50 (HOP-62): > 100 µM (inactive)
GI50 (NCI-H522): 59 µM (inactive)
GI50 (EKVX): > 100 µM (inactive)
GI50 (HT-29): > 100 µM (inactive)
GI50 (M14): > 100 µM (inactive)
GI50 (SK-OV-3): > 100 µM (inactive)
GI50 (SF-295): > 100 µM (inactive)
GI50 (LOX IMVI): > 100 µM (inactive)
GI50 (COLO 205): > 100 µM (inactive)
GI50 (TK-10): 52.4 µM (inactive)
GI50 (BT-549): > 100 µM (inactive)
GI50 (UACC-62): > 100 µM (inactive)
GI50 (Hs-578T): > 100 µM (inactive)
GI50 (RXF 393): 42 µM (inactive)
GI50 (MDA-N): > 100 µM (inactive)
GI50 (CCRF-CEM): 30.5 µM (inactive)
GI50 (IGROV-1): > 100 µM (inactive)
GI50 (SN12C): 86.3 µM (inactive)
GI50 (SK-MEL-28): > 100 µM (inactive)
GI50 (PC-3): 16.1 µM (inactive)
GI50 (SK-MEL-5): 87.5 µM (inactive)
GI50 (OVCAR-8): > 100 µM (inactive)
GI50 (Malme-3M): 75 µM (inactive)
GI50 (NCI-H23): 93.8 µM (inactive)
GI50 (U-251): 69.3 µM (inactive)
GI50 (CAKI-1): > 100 µM (inactive)
GI50 (HCC 2998): > 100 µM (inactive)
GI50 (MOLT-4): 4.2 µM (inactive)
GI50 (NCI/ADR-RES): 85.3 µM (inactive)
GI50 (786-0): > 100 µM (inactive)
GI50 (NCI-H226): > 100 µM (inactive)
GI50 (SF-539): > 100 µM (inactive)
GI50 (NCI-H460): > 100 µM (inactive)
GI50 (OVCAR-3): > 100 µM (inactive)
GI50 (UACC-257): > 100 µM (inactive)
